In PMC8322070, “A novel orally active HDAC6 inhibitor T-518 shows a therapeutic potential for Alzheimer’s disease and tauopathy in mice” (Scientific Reports, 2021):

Legend:
[1] = system: experimental mice; test: Tolerability of chronic dosing; assay type: in vivo
[2] = Free fraction in a brain (Fu,b); assay type: in vitro ADME; settings: data not shown
[3] = target: T1, human HDAC6 (Homo sapiens, UniProt Q9UBN7); test: HDAC enzyme assay (HDAC-Glo I/II), HDAC6; assay type: biochemical
T1 construct: purchased SignalChem Pharmaceutical Inc
T1 sequence (Q9UBN7 1-1215): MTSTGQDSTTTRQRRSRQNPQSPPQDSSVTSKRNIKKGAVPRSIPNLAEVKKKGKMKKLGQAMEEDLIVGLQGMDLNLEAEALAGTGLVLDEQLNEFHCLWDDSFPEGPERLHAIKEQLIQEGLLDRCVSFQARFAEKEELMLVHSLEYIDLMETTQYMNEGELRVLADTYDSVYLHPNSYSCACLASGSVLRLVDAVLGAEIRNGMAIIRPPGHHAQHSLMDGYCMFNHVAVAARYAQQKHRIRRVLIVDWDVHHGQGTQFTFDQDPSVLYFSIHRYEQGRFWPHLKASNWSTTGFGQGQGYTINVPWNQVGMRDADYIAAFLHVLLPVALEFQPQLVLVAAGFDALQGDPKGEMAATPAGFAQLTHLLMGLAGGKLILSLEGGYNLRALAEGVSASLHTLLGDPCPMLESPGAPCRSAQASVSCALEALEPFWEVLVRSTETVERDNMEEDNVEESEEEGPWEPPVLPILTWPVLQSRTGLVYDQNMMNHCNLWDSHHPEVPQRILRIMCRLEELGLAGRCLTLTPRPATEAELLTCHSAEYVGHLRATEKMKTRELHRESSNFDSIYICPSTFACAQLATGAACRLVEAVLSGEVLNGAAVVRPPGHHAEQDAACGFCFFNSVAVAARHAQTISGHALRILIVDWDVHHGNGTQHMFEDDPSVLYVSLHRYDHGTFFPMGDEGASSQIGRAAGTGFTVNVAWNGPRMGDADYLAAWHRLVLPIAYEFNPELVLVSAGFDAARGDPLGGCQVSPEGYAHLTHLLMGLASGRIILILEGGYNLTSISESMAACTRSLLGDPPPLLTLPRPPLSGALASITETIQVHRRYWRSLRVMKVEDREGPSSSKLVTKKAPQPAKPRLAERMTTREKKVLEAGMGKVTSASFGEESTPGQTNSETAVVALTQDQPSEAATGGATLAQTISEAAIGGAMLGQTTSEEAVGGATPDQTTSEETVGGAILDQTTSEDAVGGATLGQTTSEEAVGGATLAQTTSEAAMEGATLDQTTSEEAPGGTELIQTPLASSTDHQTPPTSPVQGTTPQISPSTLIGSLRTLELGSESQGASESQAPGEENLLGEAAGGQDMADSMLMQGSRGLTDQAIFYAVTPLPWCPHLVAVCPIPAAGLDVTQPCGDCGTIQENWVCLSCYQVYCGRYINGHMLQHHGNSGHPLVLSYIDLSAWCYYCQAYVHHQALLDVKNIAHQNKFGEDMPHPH
Procedure: Recombinant HDAC6, HDAC7, HDAC1 were obtained from SignalChem Pharmaceutical Inc. (Richmond, BC, Canada), and recombinant human HDAC4 was prepared at Takeda pharmaceutical company. One μL of T-518 diluted with DMSO was added to 75 μL of assay buffer (24 mM Tris–HCl (pH 7.5), 135 mM NaCl, 0.35 mM KCl, 1 mM MgCl2, 0.01% Tween 20, 0.6 mM GSH) in 384 well plates. Two μL of diluted compounds were added to 384 well plates and 2 μL of recombinant HDAC enzymes was added and then centrifuged at 1000 rpm for 10 s. The final concentrations of each HDAC enzyme were as follows, human HDAC1, 170 pM; human HDAC6, […]; human HDAC4, 68 pM; human HDAC7, 13 pM. After incubation for 60 min at room temperature, 4 μL of HDAC-Glo reagent [HDAC-Glo I/II (Promega) for HDAC6 and HDAC1, HDAC-Glo class IIa (Promega) for HDAC4 and HDAC7] was added to start the reaction. After incubation for 20 min at room temperature, the luminescence was measured by Envision plate reader (PerkinElmer, Waltham, MA, USA). For experiments under the condition of 0 min preincubation, 4 μL of HDAC-Glo reagent was added at first to the 384 well plates including diluted compounds. […] After centrifugation at 1000 rpm for 10 s. and then incubation for 20 min at room temperature, the luminescence was measured by Envision. […] The inhibitory activity of T-518 was expressed as the value of IC50. […]

For `O=C1c2cc(-c3nnc(C(F)F)o3)cnc2CN1[C@@H]1CCCC[C@H]1NC(=O)C(F)(F)C(F)(F)F` [T-518, N-[(1R,2R)-2-{3-[5-(difluoromethyl)-1,3,4-oxadiazol-2-yl]-5-oxo-5H,6H,7H-pyrrolo[3,4-b]pyridin-6-yl}cyclohexyl]-2,2,3,3,3-pentafluoropropanamide], the “tolerability of chronic dosing” value [1] was “well tolerated”, the fraction unbound [2] was 0.4 and the IC50 ([3]; after 60 min of pre-incubation) was 4.6 nM. It also gave an IC50 ([3]; without pre-incubation) of 36 nM.
